Laboratory results as given in PubChem BioAssay (NCI).
Where “and” joins values, the source holds several entries; their conditions need not be identical. Identical values can stand only once.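 Interpolation was linear, between the two tested concentrations surrounding the appropriate level; five concentrations were tested over 48 hours in 96-well plates. GI50 is the concentration that inhibits growth by half. TGI: concentration producing complete growth inhibition.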

Tests used:
Assay in all cases: NCI anticancer screen, dose series, 48 h
RXF 393 renal = system: RXF 393 renal
TK-10 renal = system: TK-10 renal
COLO 205 colon = system: COLO 205 colon
SK-MEL-5 melanoma = system: SK-MEL-5 melanoma
OVCAR-5 ovarian = system: OVCAR-5 ovarian
HCT-116 colon = system: HCT-116 colon
SNB-19 CNS = system: SNB-19 CNS
EKVX NSCLC = system: EKVX NSCLC
LOX IMVI melanoma = system: LOX IMVI melanoma

Structure (SMILES)	TGI (RXF 393 renal) [µM]	TGI (TK-10 renal) [µM]	TGI (COLO 205 colon) [µM]	TGI (SK-MEL-5 melanoma)	TGI (OVCAR-5 ovarian) [µM]	TGI (HCT-116 colon) [µM]	TGI (SNB-19 CNS) [µM]	TGI (EKVX NSCLC) [µM]	TGI (LOX IMVI melanoma) [µM]	GI50 (TK-10 renal) [µM]	GI50 (COLO 205 colon) [µM]	GI50 (SK-MEL-5 melanoma)	GI50 (OVCAR-5 ovarian) [µM]
CCCCCCCCCCCCOCC(COP(=O)(O)OCCN=[N+]=[N-])OC(=O)CCCCCCCCCCC (stereo unspecified)	> 100	> 100	> 100	> 100 µM	> 100	> 100	> 100						
COc1cc2c(cc1O)NC(=O)[C@@H]1C[C@@H](O)CN1C2=O	> 100	> 100	> 100	> 100 µM	> 100	> 100	> 100	> 100	> 100				
CCNC(=S)N/N=C(/C)c1cccc(/C(C)=N\NC(=S)NCC)n1	33.5	19.1	> 23.5	5.52 µM	> 72.8	13.1	> 100	> 52.7	35.8				
NC(=O)CSc1nc2ccccc2c(=O)n1N	> 100	> 100	> 100	> 100 µM	> 100	> 100	> 100	> 100	> 100				
CC(C)OC(=O)C(NC(=O)C(CC(=O)OCc1ccccc1)NC(=O)OCc1ccccc1)NC(=O)C1C(C)(C)CCC1(C)C (stereo unspecified)	12.7	34.5	9.27	27.1 µM	> 55.6	12	16.1	12.2	11.6				
COC(=O)[C@H](C)NC(=O)[C@H](NS(=O)(=O)c1nc2ccccc2s1)c1ccccc1	34.8	> 100	25.9	40.5 µM		> 100	73.3	> 100	31.9				
Cc1n[nH]c(=O)n1-n1cccc1	> 100	> 100	> 100	> 100 µM	> 100	> 100	> 100	> 100	> 100				
CC(=O)CCC1(C(=O)OCC(C)C)CCCC1=O (stereo unspecified)	> 100	> 100	> 100	> 100 µM	> 100	> 100	> 100	> 100	> 100				
COC(=O)Nc1cc(OCCCOC(C)=O)c2[nH]c(C(=O)OC)cc2c1C[C@H](O)CO		> 100	> 100	> 100 µM	> 100	> 100	> 100	> 100	> 100				
O=c1c2[nH]cnc2n(-c2ccccc2)c(=S)n1-c1ccccc1	> 100	> 100	> 100	> 100 µM	> 100	> 100		> 100	> 100				
Clc1[nH]nc2ccccc12	> 100	> 100	> 100	> 100 µM	> 100	> 100	> 100	> 100					
CC[C@]1(c2ccc3c(c2)OCO3)C=[N+]([O-])O[C@H](OC2CCCC2(c2ccccc2)c2ccccc2)[C@@H]1OC(C)=O (stereo partly specified)	2.63	11.6	5.07	3.54 µM	> 28.3	3.67	12.7	12.8	> 22.4				
C=CCOC(C)(C)C1=CCC(C)CC1 (stereo unspecified)	> 100	> 100	> 100	> 100 µM	> 100	> 100	> 100	> 100					
O=[N+]([O-])/C=C/c1cc(Cl)c(/C=C/[N+](=O)[O-])cc1Cl	3.14	2.9	4.5	14.9 µM		7.1	6.91	5.02	2.99				
COC(=O)c1c(O)ccc2c1c1c(n2Cc2ccc(OC)cc2)C(=O)c2ccccc2C1	79.9	> 100	34.4	> 100 µM		> 100	> 100		> 100				
COc1ccc(C(=CCC(C)C2CCC3[C@@H]4C(OC(C)=O)CC5CC(OC(C)=O)CC[C@]5(C)C4CC(OC(C)=O)[C@]23C)c2ccc(OC)cc2)cc1 (stereo partly specified)		> 100	> 100	> 100 µM	> 100	> 100	> 100	> 100					
COc1cc(C2c3cc4c(cc3[C@@H](Nc3ccc(F)cc3)C3COC[C@H]23)OCO4)cc(OC)c1O (stereo partly specified)		> 25	> 25	> 25 µM	14.1	7.9	16.2	> 25					
NCCCNc1nc2ccccc2c2c(=O)c3cc(Cl)ccc3sc12		3.68	3.1	16.2 µM	3.14					2.18	1.63	3.71 µM	1.67
Nc1c(C(=O)O)c2ccc([N+](=O)[O-])cc2c(=O)n1-c1nc2ccccc2s1	> 100		> 100	> 100 µM	> 100	> 100	> 100	> 100	> 100				
COc1cccc2c(=O)oc(-c3ccccc3C)nc12	> 100	> 100	> 100	57.7 µM	> 100	> 100		> 100	36.6				
COC(=O)C(Cc1ccccc1)NC(=O)C(CNC(=O)OCc1ccccc1)C(=O)OCc1ccccc1 (stereo unspecified)	34.1		> 100	> 100 µM and 31.4 µM	> 100	> 100	> 100					> 100 µM and 14.5 µM	
CC(C)(NO)/C(=N\O)c1ccccc1	> 10	> 10	> 10		> 10	> 10	> 10	> 10					
COc1ccc2oc(=O)c(-c3cc4c(c(C)n3)c(=O)oc3ccc(OC)cc34)cc2c1	> 100	> 100	> 100	> 100 µM		> 100	57.6	> 100	> 100				
CC(=O)c1c(-c2ccc(Cl)cc2)c(C#N)c(=S)n(C2OC(CO)C(O)C(O)C2O)c1C (stereo unspecified)	> 100	> 100	95.1	> 100 µM	> 100	> 100	84.9		> 100				
CC1=NC(=N)N=C(C)C1N=Nc1ccc2nc(C)[nH]c2c1 (stereo unspecified)	> 100	> 100	> 100		> 100	> 100	> 100	> 100	> 100				
